Assay results: US12194029B1, “Ethyl-1-(substitutedbenzoyl)-5-methylpyrrolo[1,2-a]quinoline-3-carboxylates as anticancer agents” (KING FAISAL UNIVERSITY, priority 2023, dated 2025)

Assays:
[1] = tested on: human breast cancer cell line (MCF-7); assay: MTT cell viability / in vitro cytotoxicity assay, MCF-7; type: cell-based; details: MCF7, MCF-7 cells, 48 h incubation, read-out: anticancer IC50 MCF-7
Description: (§1) The human breast cancer cell line (MCF-7), and adeno carcinomic human alveolar basal epithelial cell line (A-549), were used in the present study for the investigation of cell viability assay of the synthesized compounds.
(§2) The cells were seeded in a 96-well flat-bottom microplate and maintained at 37° C. in 95% humidity and 5% CO2 overnight. The microplates were then treated with different concentrations (5-100 μM) of the samples. The cells were incubated for another 48 h. The wells were washed twice with PBS and 20 μL of the MTT staining solution was added to each well and the plate was incubated at 37° C. After 4 h, 100 μL of DMSO was added to each well to dissolve the formazan crystals and absorbance was recorded with a 570 nm using a microplate reader.
(§3) In vitro cytotoxicity was performed by 3-(4,5-dimethylthiazol-2-yl)-2,5-di-phenyltetrazolium bromide (MTT) assay. Tested compounds were dissolved in DMSO by heating at 95° C. for 10 min, cooled at room temperature and final stock concentration of 1 mg/mL was prepared in DMEM (final DMSO concentration was <1%). The stock solutions were serially diluted to obtain the concentration range of 25 to 400 μM using DMEM, and cells were treated in triplicates. Untreated cells represented a control group and pac. treated as a positive control. After 48 h of incubation, the media was aspirated, 100 μL MTT (1 mg/mL) was added to each well and the plate was incubated at 37° C. for 4 h. After incubation, the media/MTT solution was aspirated and 100 μL DMSO was added to all the wells. Using a multi-mode microplate reader, a uniform shaking (for 5 min) was applied to dissolve Formazan crystals and the absorbance was recorded at 570 nm. Cell viability was calculated using the following equation: […]
(§4) The 50% […] inhibitory concentration (IC50) was determined using Prism software version 7. Using graph Pad Prism Version 5.1, IC50 values of the compounds were calculated.
(§5) Statistical analysis of the cytotoxicity data was performed on GraphPad Prism. All cytotoxicity experiments were conducted in triplicates. Results were analyzed as the standard error of the mean (SEM) and one-way analysis of variance (ANOVA) and the Dunnet multiple comparison test was used to evaluate the treated groups and the control. Further Bonferroni post-tests were performed for comparison of the complex with cis-platin. Differences were considered significant when p<0.05.

[2] = tested on: adeno carcinomic human alveolar basal epithelial cell line (A-549); assay: MTT cell viability / in vitro cytotoxicity assay, A-549; type: cell-based; details: A549, A-549 cells, 48 h incubation, read-out: anticancer IC50 A-549
Description: as §1, §2, §3, §4, §5

SMILES	IC50 [1] [nM]	IC50 [2] [nM]
COC(=O)c1c(C(=O)OC)c2cc(C)c3ccccc3n2c1C(=O)c1cc(C(F)(F)F)cc(C(F)(F)F)c1 [Compound 3a, Dimethyl-1-(3,5-bis(trifluoromethyl)benzoyl)-5-methylpyrrolo[1,2-a]quinoline-2,3-dicarboxylate]	272	433
CCOC(=O)c1cc(C(=O)c2cc(C(F)(F)F)cc(C(F)(F)F)c2)n2c1cc(C)c1ccccc12 [Compound 3b, Ethyl-1-(3,5-bis(trifluoromethyl)benzoyl)-5-methylpyrrolo[1,2-a]quinoline-3-carboxylate]	27	99
COC(=O)c1c(C(=O)OC)c2cc(C)c3ccccc3n2c1C(=O)c1ccccc1[N+](=O)[O-] [Compound 3c, Dimethyl-5-methyl-1-(2-nitrobenzoyl)pyrrolo[1,2-a]quinoline-2,3-dicarboxylate]	15	316
CCOC(=O)c1cc(C(=O)c2ccccc2[N+](=O)[O-])n2c1cc(C)c1ccccc12 [Compound 3d, Ethyl-5-methyl-1-(2-nitrobenzoyl)pyrrolo[1,2-a]quinoline-3-carboxylate]	85	291
COC(=O)c1c(C(=O)OC)c2cc(C)c3ccccc3n2c1C(=O)c1ccc(F)cc1 [Compound 3i, Dimethyl-1-(4-fluorobenzoyl)-5-methylpyrrolo[1,2-a]quinoline-2,3-dicarboxylate]	209	183
